The source of these data is paper PMC7489219 (Molecular Brain, 2020).

Structures are written as SMILES. Counter-ions that a name gives are not always drawn.

The test system of the experiment is T1, primary mouse cortical neurons.
T1 construct: primary cortical neurons, DIV 10
The experiment in a line: cells. The arrangement: Protection from NMDA-induced (30 uM, 10 min) neuronal death; Hoechst nuclear morphology by automated microscopy. To be noted: Cortical neurone, 20 h, read-out: % inhibition, inhibition of NMDA-induced cell death (protection score), 30 min pre-treatment. The procedure, abridged: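 On DIV 10, primary mouse cortical neurons were given compound at 10 μM for 30 min at 37 °C, then 30 μM NMDA for 10 min, washed, and kept 20 h with compound. Dead cells were scored by nuclear morphology, and % protection was derived from survival relative to vehicle + NMDA and untreated controls.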

`CC(=O)OCC(=O)[C@@]1(O)CC[C@H]2[C@@H]3CCC4=CC(=O)CC[C@]4(C)[C@H]3C(=O)C[C@@]21C` [Cortisone acetate (Cortone)]: the inhibition at 10 µM was -0.736%.
Next, `O=C(/C=C/c1ccc(O)c(O)c1)O[C@@H]1C[C@](O)(C(=O)O)C[C@@H](O)[C@H]1O` [Chlorogenic acid]: -2.16%; `CC(C(=O)O)c1cccc(Oc2ccccc2)c1` (centres unmarked) [Fenoprofen calcium]: 1.38%; `C=C[C@H]1CN2CC[C@H]1C[C@H]2[C@H](O)c1ccnc2ccccc12` [Cinchonidine]: -3.04%.
The value for `CC(=O)N1CCN(c2ccc(OC[C@@H]3CO[C@@](Cn4ccnc4)(c4ccc(Cl)cc4Cl)O3)cc2)CC1` (racemic) [Ketoconazole] was -15.9%; that for `CCCCNc1cc(C(=O)O)cc(S(N)(=O)=O)c1Oc1ccccc1` [Bumetanide] was -2.16%; that for `NC(CO)C(=O)NNCc1ccc(O)c(O)c1O` (centres unmarked) [Benserazide] was 6.78%.
`CC(C)C[C@H](NC(=O)[C@H](Cc1ccccc1)NC(=O)c1cnccn1)B(O)O` [Bortezomib (Velcade)]: the inhibition at 10 µM was -4.79%.
For `CC(=O)O[C@H]1CC[C@@]2(C)C(=CC[C@@H]3[C@@H]2CC[C@]2(C)C(c4cccnc4)=CC[C@@H]32)C1` [Abiraterone Acetate (CB7630)], the inhibition at 10 µM was -0.808%.
Turning to `Cc1nnc(C(=O)NC(C)(C)c2nc(C(=O)NCc3ccc(F)cc3)c(O)c(=O)n2C)o1` [Raltegravir (MK-0518)], the inhibition at 10 µM came out at 8.86%.
Take `Nc1ccn([C@H]2CC[C@@H](CO)O2)c(=O)n1` [Zalcitabine]: the inhibition at 10 µM is 3.28%.
With `O=C(NCCO[N+](=O)[O-])c1cccnc1` [Nicorandil (Ikorel)], the inhibition at 10 µM worked out at 51%.
As to `CN1[C@@H]2CC[C@H]1CC(OC(=O)C(CO)c1ccccc1)C2` (some centres unmarked) [Atropine], the inhibition at 10 µM worked out at 9.73%.
As for `C#Cc1cccc(Nc2ncnc3cc(OCCOC)c(OCCOC)cc23)c1` [Erlotinib HCl], the inhibition at 10 µM turned out to be 22.9%.
Next, `C#C[C@]1(O)C=C[C@H]2[C@@H]3CCC4=CC(=O)CC[C@@H]4[C@H]3CC[C@@]21CC` [Gestodene]: -1.48%; `NC(=O)N/N=C/c1ccc([N+](=O)[O-])o1` [Nitrofurazone (Nitrofural)]: 29.8%; `O=C1CCc2cc(OCCCCc3nnnn3C3CCCCC3)ccc2N1` [Cilostazol]: -13.8%.
Take `C=CC[N+]1([C@H]2C[C@H]3[C@@H]4CC[C@H]5C[C@H](O)[C@@H](N6CCOCC6)C[C@]5(C)[C@H]4CC[C@]3(C)[C@H]2OC(C)=O)CCCC1` [Rocuronium bromide]: the inhibition at 10 µM is -0.727%.
On to `C[C@]12C=CC(=O)N[C@@H]1CC[C@@H]1[C@@H]2CC[C@]2(C)[C@@H](C(=O)Nc3cc(C(F)(F)F)ccc3C(F)(F)F)CC[C@@H]12` [Dutasteride], for which the inhibition at 10 µM worked out at 113%.
Next, `C[C@H]1COC2=C1C(=O)C(=O)c1c2ccc2c1CCCC2(C)C` [Cryptotanshinone]: -2.15%; `C[C@]12C=CC(=O)C=C1CC[C@H]1[C@@H]3C[C@@H](O)[C@](O)(C(=O)CO)[C@@]3(C)C[C@H](O)[C@@]12F` [Triamcinolone (Aristocort)]: 16.3%.
With `Oc1cc2c(cc1O)[C@@H]1c3ccc(O)c(O)c3OC[C@]1(O)C2` [Hematoxylin (Hydroxybrazilin)], the inhibition at 10 µM was 1.27%.
Turning to `Cc1cc(=O)oc2cc(O)ccc12` [4-Methylumbelliferone (4-MU)], the inhibition at 10 µM is -0.113%.
With `O=C(O)c1cccnc1` [Niacin (Nicotinic acid)], the inhibition at 10 µM is -0.509%.
For the compound `O=C1NC(=O)C(c2ccccc2)(c2ccccc2)N1` [Phenytoin (Lepitoin)], the inhibition at 10 µM came to 21.2%.
For `O=C(O)c1cc(=O)[nH]c(=O)[nH]1` [Orotic acid (6-Carboxyuracil)], the inhibition at 10 µM was -3.32%.
Regarding `CC(C)[C@H]1CC[C@H](C(=O)N[C@H](Cc2ccccc2)C(=O)O)CC1` [Nateglinide (Starlix)], the inhibition at 10 µM was determined as 42.4%.
Take `CNCCC(Oc1ccc(C(F)(F)F)cc1)c1ccccc1` (centres unmarked) [Fluoxetine HCl]: the inhibition at 10 µM was -11.1%.
Consider `CCOc1cc(CC(=O)N[C@@H](CC(C)C)c2ccccc2N2CCCCC2)ccc1C(=O)O` [Repaglinide], for which the inhibition at 10 µM is -4.69%.
The value for `Cc1coc2c1C(=O)C(=O)c1c-2ccc2c1CCCC2(C)C` [Tanshinone IIA (Tanshinone B)] was 3.42%; that for `COc1ccc2[nH]c([S@@+]([O-])Cc3ncc(C)c(OC)c3C)nc2c1` [Esomeprazole sodium (Nexium)] was 21.3%.
With `CC(=O)O[C@]1(C(C)=O)CC[C@H]2[C@@H]3C=C(C)C4=CC(=O)CC[C@]4(C)[C@H]3CC[C@@]21C` [Megestrol Acetate], the inhibition at 10 µM is -7.04%.
Take `CO[C@H]1O[C@@H]2O[C@@]3(C)CC[C@H]4[C@H](C)CC[C@@H]([C@H]1C)[C@@]24OO3` [Artemether (SM-224)]: the inhibition at 10 µM was 1.03%.
`NC(=O)N1c2ccccc2C=Cc2ccccc21` [Carbamazepine (Carbatrol)]: the inhibition at 10 µM was determined as 2.33%.
Consider `COc1ccc([C@@H]2CC(=O)c3c(O)cc(O[C@@H]4O[C@H](CO[C@@H]5O[C@@H](C)[C@H](O)[C@@H](O)[C@H]5O)[C@@H](O)[C@H](O)[C@H]4O)cc3O2)cc1O` [Hesperidin], for which the inhibition at 10 µM was -3.55%.
Next, `CC(C)(C#N)c1cc(Cn2cncn2)cc(C(C)(C)C#N)c1` [Anastrozole]: 3.89%; `C[C@H]1[C@H](C)CC[C@]2(C(=O)O)CC[C@]3(C)C(=CC[C@@H]4[C@@]5(C)C[C@@H](O)[C@H](O)[C@@](C)(CO)[C@@H]5CC[C@]43C)[C@H]12` [Asiatic acid]: -2.44%.
For the compound `CC(=O)O[C@@]12CO[C@@H]1C[C@H](O)[C@@]1(C)C(=O)[C@H](O)C3=C(C)[C@@H](OC(=O)[C@H](O)[C@@H](NC(=O)OC(C)(C)C)c4ccccc4)C[C@@](O)([C@@H](OC(=O)c4ccccc4)[C@H]21)C3(C)C` [Docetaxel (Taxotere)], the inhibition at 10 µM is -4.27%.
Consider `CCOC(=O)C(C)(C)Oc1ccc(Cl)cc1` [Clofibrate (Atromid-S)], for which the inhibition at 10 µM is -1.89%.
The value for `CN(C)CC/C=C1/c2ccccc2COc2ccc(CC(=O)O)cc21` [Olopatadine hydrochloride (Opatanol)] was -8.38%.
For the compound `OCc1c[nH]c2ccccc12` [Indole-3-carbinol], the inhibition at 10 µM is -2.03%.
As to `Cc1cn(-c2cc(NC(=O)c3ccc(C)c(Nc4nccc(-c5cccnc5)n4)c3)cc(C(F)(F)F)c2)cn1` [Nilotinib (AMN-107)], the inhibition at 10 µM is -7.37%.
The value for `C[C@]12CC[C@H]3[C@@H](CC[C@@]45O[C@@H]4C(O)=C(C#N)C[C@]35C)[C@@H]1CC[C@@H]2O` [Trilostane] was 4.15%.
On to `Cc1cc2nc3c(=O)[nH]c(=O)nc-3n(C[C@H](O)[C@H](O)[C@H](O)CO)c2cc1C` [Riboflavin (Vitamin B2)], for which the inhibition at 10 µM is 1.7%.
Consider `CC1(C)O[C@@H]2[C@@H](CO[C@@]3(COS(N)(=O)=O)OC(C)(C)O[C@@H]23)O1` [Topiramate], for which the inhibition at 10 µM was 11.4%.
Regarding `Cc1nc(-c2ccc(OCC(C)C)c(C#N)c2)sc1C(=O)O` [Febuxostat (Uloric)], the inhibition at 10 µM was -0.186%.
Turning to `COc1c(N2CCNC(C)C2)c(F)cc2c(=O)c(C(=O)O)cn(C3CC3)c12` (centres unmarked) [Gatifloxacin], the inhibition at 10 µM was -10.3%.
The value for `C=C1CC[C@@H]2[C@](C)(CO)[C@H](O)CC[C@@]2(C)[C@@H]1C/C=C1/C(=O)OC[C@H]1O` [Andrographolide] was -4.01%; that for `COc1ccccc1OCC(O)COC(N)=O` (centres unmarked) [Methocarbamol (Robaxin)] was -0.235%.
Take `COc1cc([C@@H]2c3cc4c(cc3[C@@H](O[C@@H]3O[C@@H]5CO[C@@H](c6cccs6)O[C@H]5[C@H](O)[C@H]3O)[C@H]3COC(=O)[C@H]23)OCO4)cc(OC)c1O` [Teniposide (Vumon)]: the inhibition at 10 µM was -0.429%.
On to `Oc1ccc(OCc2ccccc2)cc1` [Monobenzone (Benoquin)], for which the inhibition at 10 µM was determined as 49.3%.
On to `CCn1cc(C(=O)O)c(=O)c2cc(F)c(N3CCNCC3)cc21` [Norfloxacin (Norxacin)], for which the inhibition at 10 µM was 2.34%.
Next, `CC1(C)CC[C@]2(C(=O)O)CC[C@]3(C)C(=CC[C@@H]4[C@@]5(C)CC[C@H](O)C(C)(C)[C@@H]5CC[C@]43C)[C@@H]2C1` [Oleanolic Acid (Caryophyllin)]: -2%; `Cc1cn([C@@H]2C[C@@H](O)[C@H](CO)O2)c(=O)[nH]c1=O` [Telbivudine (Sebivo, Tyzeka)]: 23.8%.
Next, `CCCCCCCCCC(=O)N[C@@H](Cc1c[nH]c2ccccc12)C(=O)N[C@H](CC(N)=O)C(=O)N[C@@H](CC(=O)O)C(=O)N[C@@H]1C(=O)NCC(=O)N[C@@H](CCCN)C(=O)N[C@@H](CC(=O)O)C(=O)N[C@H](C)C(=O)N[C@@H](CC(=O)O)C(=O)NCC(=O)N[C@H](CO)C(=O)N[C@@H]([C@H](C)CC(=O)O)C(=O)N[C@@H](CC(=O)c2ccccc2N)C(=O)O[C@@H]1C` [Daptomycin]: -3.03%; `COc1c(O)cc2c(c1O)[C@@H]1O[C@H](CO)[C@@H](O)[C@H](O)[C@H]1OC2=O` [Bergenin (Cuscutin)]: 1.66%.
On to `CN(C)c1nc(N(C)C)nc(N(C)C)n1` [Altretamine (Hexalen)], for which the inhibition at 10 µM is -3.75%.
On to `O=c1[nH]cnc2c1ncn2[C@@H]1O[C@H](CO)[C@@H](O)[C@H]1O` [Inosine], for which the inhibition at 10 µM was 19.8%.
Turning to `CN(C)CCCN1c2ccccc2Sc2ccc(Cl)cc21` [Chlorpromazine (Sonazine)], the inhibition at 10 µM is -4.78%.
